# Test results from patent US6794415B2, “Biphenyl compounds and their use as oestrogenic agents” (Aventis Pharma S.A., priority 1996, dated 2004).
# Legend:
# [1] = target: T1, recombinant human oestrogen receptor (HOR) (Homo sapiens, UniProt P03372); experiment: Human oestrogen receptor (HOR): displacement of tritiated oestradiol, relative bond affinity; format: binding; conditions: oestradiol = 100, RBA=100(CH)/(CX); for HOR long t relative bond affinity (RBA): incubation 0° C. for 24 hours (long t); for HOR short t relative bond affinity (RBA): incubation 0° C. for 3 hours (short t)
# T1 construct: made in house; host or cells: SF9 insect cells (ATCC CRL1711), baculovirus
# T1 sequence (P03372 1-595): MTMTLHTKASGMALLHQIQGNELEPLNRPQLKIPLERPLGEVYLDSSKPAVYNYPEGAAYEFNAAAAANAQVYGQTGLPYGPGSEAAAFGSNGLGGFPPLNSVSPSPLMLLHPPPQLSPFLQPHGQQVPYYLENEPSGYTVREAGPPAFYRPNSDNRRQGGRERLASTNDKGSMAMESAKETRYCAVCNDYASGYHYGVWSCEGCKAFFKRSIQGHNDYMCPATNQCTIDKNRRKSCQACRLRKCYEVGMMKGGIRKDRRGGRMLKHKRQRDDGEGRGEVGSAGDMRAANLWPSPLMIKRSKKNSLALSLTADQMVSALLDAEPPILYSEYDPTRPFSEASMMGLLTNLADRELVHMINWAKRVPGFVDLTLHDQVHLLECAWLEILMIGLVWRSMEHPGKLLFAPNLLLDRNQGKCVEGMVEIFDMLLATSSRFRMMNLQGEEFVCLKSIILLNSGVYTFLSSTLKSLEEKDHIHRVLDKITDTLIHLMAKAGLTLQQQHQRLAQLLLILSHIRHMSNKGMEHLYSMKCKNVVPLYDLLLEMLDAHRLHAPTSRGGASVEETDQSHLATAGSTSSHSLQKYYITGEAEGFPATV
# Description: Human Oestrogen Receptor (HOR)
# A cytosolic extract of SF9 cells containing the recombinant human oestrogen receptor is obtained by overexpression in an insect-Baculovirus cell system, according to the general methodology described by N. R. WEBB et al. (Journal of Methods in Cell and Molecular Biology, (1990) Vol.2 No. 4, 173-188) and the application of which is described for the expression of human hormonal receptors, for example the human glucocorticoid receptor (G. SRINIVASAN et al. Molecular Endocrinology (1990) vol 4 No. 2 209-216).
# The BaculoGold Transfection Kit (PharMingen, reference 21000K) is used to generate the recombinant baculovirus containing the cDNA fragment described in the expression vector HEGO by L. TORA et al. (The EMBO Journal (1989) vol. 8 No. 7 1981-1986), containing the coding region for the wild-type human oestrogen receptor with a glycine in position 400.
# The recombinant virus thus obtained is used to express the oestrogen receptor in the SF9 insect cells (ATCC CRL1711), according to the known methodology mentioned previously.
# 2*10^7 SF9 cells are cultured in a 175 cm^2 “Falcon” flask in the TNM-FH “SIGMA” medium supplemented by 10% of foetal calf serum (FCS) and by 50 microgram/ml of gentamycin. After infection then incubation at 27° C. for 40 to 42 hours, the cells are lysed in 1 ml of lysis buffer (Tris 20 mM-HCl pH8, EDTA 0.5 mM, DTT 2 mM, Glycerol 20%, KCl 400 mM) with a freezing-thawing cycle which is repeated another two times. The supernatant, containing the recombinant human oestrogen receptor is kept in liquid nitrogen by 0.5 ml doses.
# The supernatant is incubated at 0° C. for 24 hours (long t) or 3 hours (short t) with a constant concentration (T) of tritiated oestradiol in the presence of increasing concentrations of either unlabelled oestradiol (0-1000×10^−9M), or of unlabelled product to be tested (0-25000×10^−9M). The concentration of bound tritiated oestradiol (B) is then measured in each incubate by the technique of adsorption with carbon dextran.
# (§1) Calculation of the Relative Bond Affinity (RBA):
# (§2) The following two curves are drawn: the percentage of bound tritiated hormone 100×B/B0 as a function of the logarithm of the concentration of unlabelled reference hormone or as a function of the concentration of unlabelled test product.
# (§3) The straight line of the equation
# (§4) B0=concentration of bound tritiated hormone in the absence of any unlabelled product.
# (§5) B=concentration of bound tritiated hormone in the presence of a concentration X of unlabelled product.
# (§6) B min=concentration of bound tritiated hormone for an incubation of this tritiated hormone at a concentration (T) in the presence of a large excess of unlabelled reference hormone (1000×10^−9M) for the human receptor.
# (§7) The intersections of the straight line I50 and the curves allow the evaluation of the concentrations of unlabelled reference hormone (CH) and of the unlabelled test product (CX) which inhibit by 50% the binding of the tritiated hormone on the receptor.
# (§8) The relative bond affinity (RBA) of the test product is calculated by the equation: RBA=100(CH)/(CX).
# [2] = target: T2, Oestrogen Receptor of a Rat's Uterus (ROR) (Rattus norvegicus, UniProt P06211); experiment: Oestrogen receptor of a rat's uterus (ROR): displacement of tritiated oestradiol, relative bond affinity; format: binding; conditions: oestradiol = 100; RBA=100(CH)/(CX); rat uterus cytosol, incubation 0° C. for 24 hours
# T2 construct: the uteri are removed, then homogenized at 0° C; from tissue; host or cells: rat uterus cytosol (ultracentrifugation supernatant of homogenate)
# T2 sequence (P06211 1-600): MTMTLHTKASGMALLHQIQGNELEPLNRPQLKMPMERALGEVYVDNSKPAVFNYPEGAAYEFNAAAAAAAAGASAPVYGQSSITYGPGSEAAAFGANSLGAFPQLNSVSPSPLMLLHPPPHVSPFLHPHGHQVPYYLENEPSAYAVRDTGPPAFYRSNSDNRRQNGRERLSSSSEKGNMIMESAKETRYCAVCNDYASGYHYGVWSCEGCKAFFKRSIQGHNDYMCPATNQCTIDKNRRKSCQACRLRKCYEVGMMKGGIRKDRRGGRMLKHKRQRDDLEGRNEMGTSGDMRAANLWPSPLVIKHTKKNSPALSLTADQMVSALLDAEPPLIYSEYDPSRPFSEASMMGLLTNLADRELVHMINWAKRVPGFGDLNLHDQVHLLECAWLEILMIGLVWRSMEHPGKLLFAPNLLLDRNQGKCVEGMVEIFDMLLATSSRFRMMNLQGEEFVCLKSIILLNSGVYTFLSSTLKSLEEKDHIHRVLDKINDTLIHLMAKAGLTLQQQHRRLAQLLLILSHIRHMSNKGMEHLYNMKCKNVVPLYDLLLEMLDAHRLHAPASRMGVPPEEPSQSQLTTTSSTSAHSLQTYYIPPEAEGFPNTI
# Description: Oestrogen Receptor of a Rat's Uterus (ROR):
# Female rats of 280-300 g and castrated 24 hours beforehand, are sacrificed, the uteri are removed, then homogenized at 0° C., using a teflon-glass Potter in a buffered solution BS (10 mM Tris, 0.25 M saccharose, HCl pH 7.4) (1 g of tissue per 10 ml of BS). The homogenate is then ultracentrifuged (209,000 g×30mn.) at 0° C. The supernatant aliquots thus obtained are incubated at 0° C. for 24 hours, with a constant concentration (2.5 10^−9M) of tritiated oestrodiol in the presence of increasing concentrations either of unlabelled oestradiol (0-1000×10^−9M), or of unlabelled product to be tested […]. The concentration of bound tritiated oestradiol (B) is then measured in each incubate by the carbon-dextran adsorption technique.
# as §1, §2, §3, §4, §5, §6, §7, §8
SMILES,HOR long t relative bond affinity (RBA) [1],ROR relative bond affinity (RBA) [2],HOR short t relative bond affinity (RBA) [1]
"O=Cc1cc(Br)c(-c2ccc(O)cc2)c(Br)c1 [Example 1, 2,6-dibromo-4′-hydroxy-(1,1′-biphenyl)-4-carboxaldehyde]",5.5,,
"OCc1cc(Br)c(-c2ccc(O)cc2)c(Br)c1 [Example 2, 2,6-dibromo-4′-hydroxy-(1,1′-biphenyl)-4-methanol]",74,12.5,425
"CC(C)c1cc(CO)cc(Cl)c1-c1ccc(O)cc1 [Example 4, 2-chloro-4′-hydroxy-6-(1-methylethyl)-(1,1′-biphenyl)-4-methanol]",22,4,
"CCc1cc(C(C)C)c(-c2ccc(O)cc2)cc1C [Example 6, 4′-ethyl-5′-methyl-2′-(1-methylethyl)-(1,1′-biphenyl)-4-ol]",4.5,,
"OCc1cc(Cl)c(-c2ccc(O)cc2)c(C(F)(F)F)c1 [Example 7, 2-chloro-4′-hydroxy-6-(trifluoromethyl)-(1,1′-biphenyl)-4-methanol]",50,9.5,
"Cc1c(C(C)O)cc(C(C)C)c(-c2ccc(O)cc2)c1Cl (stereo not drawn) [Example 13, 1-[2-chloro-4′-hydroxy-3-methyl-6-(1-methylethyl)-(1,1′-biphenyl-4-yl)]-ethanol]",7.5,0.8,24
"O=[N+]([O-])c1cc(CO)cc(Br)c1-c1ccc(O)cc1 [Example 18, 2-bromo-4′-hydroxy-6-nitro-(1,1′-biphenyl)-4-methanol]",34,5,
"OCc1cc(Cl)c(-c2ccc(O)cc2)c(Cl)c1 [Example 24, 2,6-dichloro-4′-hydroxy-(1,1′-biphenyl)-4-methanol]",35,3,104
"O=Cc1cc(Cl)c(-c2ccc(O)cc2)c(Cl)c1 [Example 25, 2,6-dichloro-4′-hydroxy-(1,1′-biphenyl)-4-carboxaldehyde]",5,,12
"OCc1c(Cl)c(Cl)c(-c2ccc(O)cc2)c(Cl)c1Cl [Example 26, 4′-hydroxy-2.3,5,6-tetrachloro-(1,1′-biphenyl)-4-methanol]",5.5,,
"OCc1ccc(-c2ccc(O)cc2)c(C(F)(F)F)c1 [Example 28, 4′-hydroxy-2-trifluoromethyl-(1,1′-biphenyl)-4-methanol]",8,2,33
"Cc1ccc(-c2ccc(O)cc2)c(C(F)(F)F)c1 [Example 29, 4′-methyl-2′-trifluoromethyl-(1,1′-biphenyl)-4-ol]",0.6,0.15,
"O=[N+]([O-])c1cc(CO)cc([N+](=O)[O-])c1-c1ccc(O)cc1 [Example 30, 2,6-dinitro-4′-hydroxy-(1,1′-biphenyl)-4-methanol]",5,2,24
"OCc1cc(Cl)c(-c2ccc(O)c(Cc3ccccc3)c2)c(Cl)c1 [Example 36, 2,6-dichloro-4′-hydroxy-5′-(phenylmethyl)-(1,1′-biphenyl)-4-methanol]",0.07,8,
